Measurements as given in US8058475B2, “Substituted cyclohexylmethyl compounds” (Gruenenthal GmbH, priority 2005, dated 2011).
Counter-ions that a name gives are not always drawn. Like-named read-outs stand apart in the source and are kept apart here.

Experiments:
human μ-opiate receptor = human μ-opiate receptor (Homo sapiens, UniProt P35372); experiment: Affinity for the human μ-opiate receptor ([3H]-naloxone displacement, SPA, CHO-K1 membrane preparation); type: binding; settings: for inhibition at 1 µM: read-out: μ-Opioid receptor, % inhibition [1 μM]; for Ki: read-out: μ-Opioid receptor, Ki
Sequence of human μ-opiate receptor (P35372 whole entry): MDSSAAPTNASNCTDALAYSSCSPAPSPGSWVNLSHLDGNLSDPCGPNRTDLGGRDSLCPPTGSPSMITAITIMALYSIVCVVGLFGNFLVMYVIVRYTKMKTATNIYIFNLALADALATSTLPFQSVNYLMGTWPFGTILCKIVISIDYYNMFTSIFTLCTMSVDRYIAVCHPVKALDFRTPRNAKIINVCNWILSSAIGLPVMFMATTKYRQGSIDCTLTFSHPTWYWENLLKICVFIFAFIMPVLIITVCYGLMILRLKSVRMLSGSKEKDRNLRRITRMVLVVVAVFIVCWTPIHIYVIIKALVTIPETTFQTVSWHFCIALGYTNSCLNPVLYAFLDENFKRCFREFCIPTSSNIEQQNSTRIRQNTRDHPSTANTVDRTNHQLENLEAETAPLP

[1] = molecular target: T1, Noradrenaline (NA) reuptake (Rattus norvegicus, UniProt Q63380); experiment: Noradrenaline (NA) reuptake inhibition in rat brain synaptosomes (hypothalamus, P2 fraction); type: biochemical
T1 construct: synaptosomes are freshly isolated from areas of rat brain; from tissue; host or cells: rat hypothalamus synaptosomes (P2 fraction)
T1 sequence (Q63380 1-617): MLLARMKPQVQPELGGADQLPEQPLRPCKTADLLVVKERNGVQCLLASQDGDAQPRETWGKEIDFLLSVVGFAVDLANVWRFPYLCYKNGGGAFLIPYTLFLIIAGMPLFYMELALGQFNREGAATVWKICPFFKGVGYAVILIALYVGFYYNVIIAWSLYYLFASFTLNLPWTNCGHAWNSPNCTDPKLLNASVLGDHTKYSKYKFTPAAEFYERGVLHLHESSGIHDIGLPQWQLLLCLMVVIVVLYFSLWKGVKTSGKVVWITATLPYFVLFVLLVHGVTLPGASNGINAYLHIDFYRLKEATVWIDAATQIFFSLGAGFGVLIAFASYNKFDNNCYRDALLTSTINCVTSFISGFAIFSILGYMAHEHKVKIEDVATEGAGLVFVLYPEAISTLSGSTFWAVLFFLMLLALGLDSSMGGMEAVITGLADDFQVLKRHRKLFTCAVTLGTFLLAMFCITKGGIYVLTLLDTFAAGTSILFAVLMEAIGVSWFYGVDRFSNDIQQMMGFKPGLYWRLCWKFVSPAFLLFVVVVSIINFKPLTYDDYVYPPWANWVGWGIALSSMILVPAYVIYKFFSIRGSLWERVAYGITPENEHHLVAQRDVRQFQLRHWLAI
Procedure, shortened: (§1)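 Freshly isolated rat brain synaptosomes (P2 fraction, Gray–Whittaker method) used for uptake; for NA uptake the particles came from hypothalamus of male rats.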

Serotonin (5HT) reuptake = molecular target: T2, Serotonin (5HT) reuptake (Rattus norvegicus, UniProt P31652); experiment: Serotonin (5HT) reuptake inhibition in rat brain synaptosomes (P2 fraction); type: biochemical; settings: for inhibition at 10 µM: read-out: Serotonin reuptake, % inhibition [10 μM]
T2 construct: synaptosomes are freshly isolated from areas of rat brain; from tissue; host or cells: rat brain synaptosomes (P2 fraction)
T2 sequence (P31652 whole entry): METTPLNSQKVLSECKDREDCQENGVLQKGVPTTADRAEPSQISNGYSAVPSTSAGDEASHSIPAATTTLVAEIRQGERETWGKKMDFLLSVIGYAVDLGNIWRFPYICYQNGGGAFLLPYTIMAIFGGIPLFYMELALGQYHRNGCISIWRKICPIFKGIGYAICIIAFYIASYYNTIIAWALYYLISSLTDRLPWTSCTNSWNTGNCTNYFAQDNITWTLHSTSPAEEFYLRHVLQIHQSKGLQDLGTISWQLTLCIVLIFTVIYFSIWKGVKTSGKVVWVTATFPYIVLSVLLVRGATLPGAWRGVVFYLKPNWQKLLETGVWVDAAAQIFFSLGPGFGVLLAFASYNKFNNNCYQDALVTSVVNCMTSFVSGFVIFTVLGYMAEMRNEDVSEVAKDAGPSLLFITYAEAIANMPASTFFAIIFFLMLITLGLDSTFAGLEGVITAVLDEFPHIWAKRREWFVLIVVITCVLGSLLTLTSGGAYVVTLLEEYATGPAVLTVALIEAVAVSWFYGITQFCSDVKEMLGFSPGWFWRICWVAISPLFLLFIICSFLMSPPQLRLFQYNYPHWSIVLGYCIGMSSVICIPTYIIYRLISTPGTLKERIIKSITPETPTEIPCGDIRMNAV
Procedure, shortened: as §1

[2] = 1 μM test substance, inhibition of specific [3H]-naloxone binding
[3] = read-out: NA reuptake, % inhibition [10 μM]
[4] = read-out: Na reuptake, % inhibition [10 μM]

Compound | inhibition at 1 µM (human μ-opiate receptor; [2]) | inhibition at 10 µM [1, 3] | inhibition at 10 µM (Serotonin (5HT) reuptake) | inhibition at 1 µM (human μ-opiate receptor) | Ki (human μ-opiate receptor) | Ki [1] | inhibition at 10 µM [1, 4] | Ki (Serotonin (5HT) reuptake) | Ki (human μ-opiate receptor; [3H]-naloxone, human μ-opiate receptor membranes)
CN(C)C(c1cccc(F)c1)C1CCC(C=O)CC1 (stereo not shown) [compound 34, 4-[Dimethylamino-(3-fluorophenyl)-methyl]-cyclohexane-carbaldehyde] | 34% | 87% | 87% |  |  |  |  |  | 
CN(C)C(c1ccccc1)C1CCC(CO)CC1 (stereo not shown) [compound 117, [4-(dimethylamino-phenyl-methyl)-cyclohexyl]-methanol] | 57% | 82% | 85% |  |  |  |  |  | 
CCC(CC)C(=O)N(Cc1ccccc1)C1CCC(C(c2ccccc2)N(C)C)CC1 (stereo not shown) [compound 101, N-benzyl-N-(4-((dimethylamino)(phenyl)methyl)cyclohexyl)-2-ethylbutanamide hydrochloride] |  |  | 81% | 101% | 2.3 nM | 670 nM | 86% | 880 nM | 
CN(C)C(c1ccc(Cl)cc1)C1CCC(O)CC1 (stereo not shown) [compound 114, 4-[(4-chlorophenyl)-dimethylamino-methyl]-cyclohexanol] | 43% | 93% | 64% |  |  |  |  |  | 
CN(C)C(c1cccs1)C1CCC(O)CC1 (stereo not shown) [compound 115, 4-(dimethylamino-thiophen-2-yl-methyl)-cyclohexanol] | 61% | 47% | 63% |  |  |  |  |  | 
COc1ccc(NC2CCC(C(c3ccccc3)N(C)C)CC2)cc1 (stereo not shown) [compound 89, N-(4-((dimethylamino)(phenyl)methyl)cyclohexyl)-4-methoxybenzenamine hydrochloride] | 95% | 85% | 73% |  | 59 nM |  |  |  | 
CN(C)C(c1cccc(F)c1)C1CCC(CCN)CC1 (stereo not shown) [compound 54, 2-{4-[dimethylamino-(3-fluorophenyl)-methyl]-cyclohexyl}-ethylamine] | 62% | 102% | 94% |  |  |  |  |  | 
CN(C)C(c1cccs1)C1CCC(CN)CC1 (stereo not shown) [compound 42, [(4-aminomethyl-cyclohexyl)-thiophen-2-yl-methyl]-dimethylamine] | 80% | 83% | 86% |  |  |  |  |  | 240 nM
CN(C)C(c1cccc(F)c1)C1CCC(N)CC1 (stereo not shown) [compound 21, 4-[dimethylamino-(3-fluorophenyl)-methyl]-cyclohexylamine] | 48% | 90% | 80% |  |  |  |  |  | 
CN(C)C(c1ccc(F)cc1)C1CCC(O)CC1 (stereo not shown) [compound 112, 4-[dimethylamino-(4-fluorophenyl)-methyl]-cyclohexanol] | 66% | 74% | 82% |  |  |  |  |  | 
CN(C)C(c1cccs1)C1CCC(CC=O)CC1 (stereo not shown) [compound 67, {4-[Dimethylamino-thiophen-2-yl-methyl]-cyclohexyl}-acetaldehyde] |  | 86% | 95% |  | 200 nM |  |  |  | 
CCOC(=O)CCC1CCC(C(c2ccccc2)N(C)C)CC1 (stereo not shown) [compound 133, 3-[4-(dimethylamino-phenyl-methyl)-cyclohexyl]-propionic acid ethyl ester] | 81% | 87% | 89% |  | 96 nM |  |  | 99 nM | 
CCOC(=O)C=CC1CCC(C(c2ccc(F)cc2)N(C)C)CC1 (stereo not shown) [compound 135, 3-{4-[dimethylamino-(4-fluorophenyl)-methyl]-cyclohexyl}-acrylic acid ethyl ester] | 70% | 90% | 78% |  | 380 nM | 490 nM |  | 220 nM | 
CC(=O)N(c1ccccc1)C1CCC(C(c2ccccc2)N(C)C)CC1 (stereo not shown) [compound 96, N-(4-((dimethylamino)(phenyl)methyl)cyclohexyl)-N-phenylacetamide hydrochloride] |  |  | 83% | 99% | 86 nM | 800 nM | 88% | 660 nM | 
